Biological target: T1, ATR/ATRIP (Homo sapiens, UniProt Q13535)
T1 construct: human ATR, full length, GenBank ID: NM_001184.3; p53: Sf21 insect cells
Experiment: ATR/ATRIP kinase assay (TR-FRET, p53 phosphorylation)
Format: biochemical
Details: Table 1, class symbols; read-out: ATR-ATRIP IC50
Description: ATR/ATRIP Kinase Assay—Measurement of ATR/ATRIP Inhibition
The IC50 value was determined by an ATR/ATRIP enzymatic assay. The assay comprises two steps: the enzymatic reaction and the detection step. First, a mixture of ATR/ATRIP protein (Ataxia Telangiectasia and Rad3-related protein/ATR interacting protein), the compound in question at different concentrations, p53 as substrate protein and adenosine triphosphate (ATP) are incubated in assay buffer. ATR phosphorylates p53 at Ser15 and other residues. The amount of phosphorylated p53 is then detected using specific antibodies and the TR-FRET assay technology.
In detail: The ATR/ATRIP enzymatic assay is performed as a TR-FRET-(HTRF™, Cisbio Bioassays) based 384-well assay. In a first step, purified human recombinant ATR/ATRIP (human ATR, full length, GenBank ID: NM_001184.3, and human ATRIP, full length, GenBank ID AF451323.1, co-expressed in a mammalian cell line) is incubated in assay buffer for 15 minutes at 22° C. with test compound at different concentrations or without test compound (as a negative control). The assay buffer contains 25 mM HEPES pH 8.0, 10 mM Mg(CH3COO)2, 1 mM MnCl2, 0.1% BSA, 0.01% Brij® 35, and 5 mM dithiothreitol (DTT). […] Then, in a second step, purified human recombinant cmyc-tagged p53 (human p53, full length, GenBank ID: BC003596, expressed in Sf21 insect cells) and ATP are added and the reaction mixture is incubated for 25-35 minutes, typically 25 minutes, at 22° C. The pharmacologically relevant assay volume is 5 μl. The final concentrations in the assay during incubation of the reaction mixture are 0.3-0.5 nM, typically 0.3 nM, ATR/ATRIP, 50 nM p53, and 0.5 μM ATP. The enzymatic reaction is stopped by the addition of EDTA. […] Following signal development for 2 h the plates are analyzed in an EnVision (PerkinElmer) microplate reader using the TRF mode with laser excitation. […] Data are processed employing the Genedata Screener software. In particular, IC50 values are determined in the usual manner by fitting a dose-response curve to the data points using nonlinear regression analysis.

T1 sequence (Q13535 whole entry): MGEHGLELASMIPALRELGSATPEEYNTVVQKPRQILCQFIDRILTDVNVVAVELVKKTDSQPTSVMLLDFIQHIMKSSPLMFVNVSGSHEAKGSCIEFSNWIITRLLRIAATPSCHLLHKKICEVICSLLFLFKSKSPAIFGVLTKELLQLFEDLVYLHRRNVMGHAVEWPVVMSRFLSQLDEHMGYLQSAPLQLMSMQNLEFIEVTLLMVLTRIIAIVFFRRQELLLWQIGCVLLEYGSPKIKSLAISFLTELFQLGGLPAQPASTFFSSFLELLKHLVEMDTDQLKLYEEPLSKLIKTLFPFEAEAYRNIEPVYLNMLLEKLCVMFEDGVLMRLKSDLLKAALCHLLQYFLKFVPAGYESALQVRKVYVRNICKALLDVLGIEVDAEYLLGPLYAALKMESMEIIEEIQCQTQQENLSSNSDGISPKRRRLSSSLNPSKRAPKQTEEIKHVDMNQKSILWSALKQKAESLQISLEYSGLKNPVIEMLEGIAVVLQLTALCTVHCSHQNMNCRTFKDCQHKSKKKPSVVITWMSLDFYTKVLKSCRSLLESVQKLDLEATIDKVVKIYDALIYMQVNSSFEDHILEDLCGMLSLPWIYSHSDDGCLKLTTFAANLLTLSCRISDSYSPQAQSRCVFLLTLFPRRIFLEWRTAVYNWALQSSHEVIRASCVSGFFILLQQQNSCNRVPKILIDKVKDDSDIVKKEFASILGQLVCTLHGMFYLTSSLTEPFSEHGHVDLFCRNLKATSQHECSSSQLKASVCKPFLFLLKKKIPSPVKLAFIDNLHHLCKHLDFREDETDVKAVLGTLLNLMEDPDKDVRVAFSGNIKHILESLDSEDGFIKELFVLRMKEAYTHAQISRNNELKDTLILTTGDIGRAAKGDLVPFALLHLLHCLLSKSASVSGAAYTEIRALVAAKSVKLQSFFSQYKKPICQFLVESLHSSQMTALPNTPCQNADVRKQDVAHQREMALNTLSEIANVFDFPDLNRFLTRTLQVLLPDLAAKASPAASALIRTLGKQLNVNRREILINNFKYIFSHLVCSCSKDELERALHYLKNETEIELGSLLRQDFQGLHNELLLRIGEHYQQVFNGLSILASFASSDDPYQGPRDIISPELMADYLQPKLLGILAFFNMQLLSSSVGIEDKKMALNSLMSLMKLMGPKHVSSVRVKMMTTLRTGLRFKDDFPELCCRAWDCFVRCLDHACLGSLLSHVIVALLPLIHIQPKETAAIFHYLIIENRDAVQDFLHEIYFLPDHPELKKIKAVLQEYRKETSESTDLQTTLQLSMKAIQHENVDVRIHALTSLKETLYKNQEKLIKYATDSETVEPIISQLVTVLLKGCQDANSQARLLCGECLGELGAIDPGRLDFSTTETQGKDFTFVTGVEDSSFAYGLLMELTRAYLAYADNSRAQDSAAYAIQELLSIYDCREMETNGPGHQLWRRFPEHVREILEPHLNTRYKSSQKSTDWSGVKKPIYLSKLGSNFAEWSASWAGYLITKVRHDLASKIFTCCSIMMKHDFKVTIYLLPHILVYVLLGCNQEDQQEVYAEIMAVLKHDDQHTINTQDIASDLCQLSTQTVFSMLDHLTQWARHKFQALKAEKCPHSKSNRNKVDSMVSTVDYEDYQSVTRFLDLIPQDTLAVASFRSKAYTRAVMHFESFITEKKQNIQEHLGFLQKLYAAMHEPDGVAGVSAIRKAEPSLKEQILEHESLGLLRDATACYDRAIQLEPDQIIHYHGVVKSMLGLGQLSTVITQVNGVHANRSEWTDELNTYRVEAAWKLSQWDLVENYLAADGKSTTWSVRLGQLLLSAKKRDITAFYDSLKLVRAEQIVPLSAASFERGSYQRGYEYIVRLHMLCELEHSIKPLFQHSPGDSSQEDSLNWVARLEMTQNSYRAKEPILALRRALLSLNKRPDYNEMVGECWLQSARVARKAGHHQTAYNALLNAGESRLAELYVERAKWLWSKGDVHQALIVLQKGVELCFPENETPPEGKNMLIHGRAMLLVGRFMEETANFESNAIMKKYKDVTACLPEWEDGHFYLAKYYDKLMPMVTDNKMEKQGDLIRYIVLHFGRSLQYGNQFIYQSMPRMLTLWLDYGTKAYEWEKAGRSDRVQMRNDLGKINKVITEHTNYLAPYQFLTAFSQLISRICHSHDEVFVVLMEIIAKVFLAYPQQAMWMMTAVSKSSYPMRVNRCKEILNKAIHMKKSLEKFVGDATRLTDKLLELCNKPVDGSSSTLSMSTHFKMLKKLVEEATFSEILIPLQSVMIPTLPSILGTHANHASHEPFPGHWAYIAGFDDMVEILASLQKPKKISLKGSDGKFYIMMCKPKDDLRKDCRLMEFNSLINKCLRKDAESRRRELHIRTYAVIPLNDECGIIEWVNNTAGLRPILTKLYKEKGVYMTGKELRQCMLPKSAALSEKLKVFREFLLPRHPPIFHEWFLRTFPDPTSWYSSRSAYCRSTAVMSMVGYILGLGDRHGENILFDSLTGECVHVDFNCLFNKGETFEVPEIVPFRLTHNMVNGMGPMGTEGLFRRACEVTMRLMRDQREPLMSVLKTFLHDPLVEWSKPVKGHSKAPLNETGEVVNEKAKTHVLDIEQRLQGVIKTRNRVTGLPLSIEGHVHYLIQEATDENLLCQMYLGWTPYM
T1 sequence (Q8WXE1 whole entry partner): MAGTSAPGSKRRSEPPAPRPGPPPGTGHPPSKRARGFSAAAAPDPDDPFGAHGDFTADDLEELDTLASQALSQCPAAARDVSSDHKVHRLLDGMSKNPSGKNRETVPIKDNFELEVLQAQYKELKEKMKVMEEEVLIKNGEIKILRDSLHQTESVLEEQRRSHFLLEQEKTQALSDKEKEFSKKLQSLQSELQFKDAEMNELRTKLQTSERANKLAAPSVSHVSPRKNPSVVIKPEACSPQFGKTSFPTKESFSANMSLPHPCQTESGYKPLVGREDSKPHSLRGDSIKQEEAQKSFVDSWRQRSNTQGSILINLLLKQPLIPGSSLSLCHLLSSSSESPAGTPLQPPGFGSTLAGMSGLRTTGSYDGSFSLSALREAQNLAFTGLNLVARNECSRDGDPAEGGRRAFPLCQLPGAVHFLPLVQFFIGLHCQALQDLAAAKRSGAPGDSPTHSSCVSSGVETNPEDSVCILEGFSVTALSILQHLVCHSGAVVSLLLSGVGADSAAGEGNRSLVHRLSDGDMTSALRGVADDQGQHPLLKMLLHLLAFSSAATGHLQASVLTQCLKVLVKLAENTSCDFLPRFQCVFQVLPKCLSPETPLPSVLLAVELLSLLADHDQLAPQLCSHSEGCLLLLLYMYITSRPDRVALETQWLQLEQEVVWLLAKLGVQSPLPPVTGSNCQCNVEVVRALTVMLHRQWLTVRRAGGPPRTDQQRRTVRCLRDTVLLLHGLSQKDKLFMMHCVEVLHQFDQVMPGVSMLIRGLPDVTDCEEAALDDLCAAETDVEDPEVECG

| Compound | IC50 |
| --- | --- |
| C[C@@H]1COC[C@H]2COc3c(nc(-c4ccc5c(c4)CCNC5)nc3C(C)(C)S(C)(=O)=O)N21 [A71, (5R,8aS)-1-(1-methanesulfonyl-1-methyl-ethyl)-5-methyl-3-(1,2,3,4-tetrahydro-isoquinolin-6-yl)-5,6,8a,9-tetrahydro-8H-7,10-dioxa-2,4,4b-triaza-phenanthrene] | 100 to 500 nM |
| C[C@@H]1COC[C@H]2COc3c(nc(-c4ccc(C5(N)COC5)cc4)nc3C(C)(C)S(C)(=O)=O)N21 [A62, 3-{4-[(5R,8aS)-1-(1-methanesulfonyl-1-methyl-ethyl)-5-methyl-5,6,8a,9-tetrahydro-8H-7,10-dioxa-2,4,4b-triaza-phenanthren-3-yl]-phenyl}-oxetan-3-ylamine] | 500 to 30000 nM |
| CNc1nc2ccccc2n1-c1nc(Cn2nncc2C(=O)O)c2c(n1)N1[C@@H](COC[C@H]1C)CO2 [A3, 3-[(5R,8aS)-5-Methyl-3-(2-methylamino-benzoimidazol-1-yl)-5,6,8a,9-tetrahydro-8H-7,10-dioxa-2,4,4b-triaza-phenanthren-1-ylmethyl]-3H[1,2,3]triazole-4-carboxylic Acid] | 100 to 500 nM |
| CNc1nc2ccccc2n1-c1nc2c(c(C(C)(C)S(C)(=O)=O)n1)OC[C@H]1COC[C@H](C)N21 [A14, {1-[(5S,8aR)-1-(1-Methanesulfonyl-1-methyl-ethyl)-5-methyl-5,6,8a,9-tetrahydro-8H-7,10-dioxa-2,4,4b-triaza-phenanthren-3-yl]-1H-benzimidazol-2-yl}-methyl-amine] | 10 to 100 nM |
| C[C@@H]1COC[C@H]2COc3c(nc(C(=O)Nc4ccn[nH]4)nc3C(C)(C)S(C)(=O)=O)N21 [A47, (4bS,6R)-1-(1-methanesulfonyl-1-methyl-ethyl)-5-methyl-5,6,8a,9-tetrahydro-8H-7,10-dioxa-2,4,4b-triaza-phenanthrene-3-carboxylic Acid (2H-pyrazol-3-yl)-amide] | 500 to 30000 nM |
| C[C@@H]1COC[C@H]2COc3c(nc(-c4c(F)ncc5c4ccn5C)nc3C(C)(C)S(C)(=O)=O)N21 [A38, (5R,8aS)-3-(5-fluoro-1-methyl-1H-pyrrolo[2,3-c]pyridin-4-yl)-1-(1-methanesulfonyl-1-methyl-ethyl)-5-methyl-5,6,8a,9-tetrahydro-8H-7,10-dioxa-2,4,4b-triaza-phenanthrene] | 500 to 30000 nM |
| CNc1ncn(-c2nc3c(c(C(C)(C)S(C)(=O)=O)n2)OC[C@@H]2COC[C@@H](C)N32)n1 [A43] | 100 to 500 nM |
| C[C@@H]1COC[C@H]2COc3c(nc(C(=O)Nc4ncccn4)nc3C(C)(C)S(C)(=O)=O)N21 [A58, (4bS,6R)-1-(1-methanesulfonyl-1-methyl-ethyl)-5-methyl-5,6,8a,9-tetrahydro-8H-7,10-dioxa-2,4,4b-triaza-phenanthrene-3-carboxylic Acid pyrimidin-2-ylamide] | 500 to 30000 nM |
| C[C@@H]1COC[C@H]2COc3c(nc(-c4cccc5c4CS(=O)(=O)N5)nc3C(C)(C)S(C)(=O)=O)N21 [A87, 4-[(10S,14R)-6-(2-methanesulfonylpropan-2-yl)-14-methyl-8,12-dioxa-1,3,5-triazatricyclo[8.4.0.0^{2,7}]tetradeca-2,4,6-trien-4-yl]-1,3-dihydro-2lambda6,1-benzothiazole-2,2-dione] | 10 to 100 nM |
| C[C@@H]1COC[C@H]2COc3c(nc(N(C)c4nc5ccccc5[nH]4)nc3C(C)(C)S(C)(=O)=O)N21 [A16, (1H-Benzimidazol-2-yl)-[(5R,8aS)-1-(1-methanesulfonyl-1-methyl-ethyl)-5-methyl-5,6,8a,9-tetrahydro-8H-7,10-dioxa-2,4,4b-triaza-phenanthren-3-yl]-methyl-amine] | 10 to 100 nM |
| C[C@@H]1COC[C@H]2COc3c(nc(C(=O)NC[C@@H](C)O)nc3C(C)(C)S(C)(=O)=O)N21 [A53, (4bS,6R)-1-(1-methanesulfonyl-1-methyl-ethyl)-5-methyl-5,6,8a,9-tetrahydro-8H-7,10-dioxa-2,4,4b-triaza-phenanthrene-3-carboxylic Acid ((R)-2-hydroxy-propyl)-amide] | 500 to 30000 nM |
| CNc1nc2ccccc2n1-c1nc(Cn2cc(C(=O)O)nn2)c2c(n1)N1[C@@H](COC[C@H]1C)CO2 [A17, 1-[(5R,8aS)-5-Methyl-3-(2-methylamino-benzimidazol-1-yl)-5,6,8a,9-tetrahydro-8H-7,10-dioxa-2,4,4b-triaza-phenanthren-1-ylmethyl]-1H[1,2,3]triazole-4-carboxylic Acid] | 100 to 500 nM |
| C[C@@H]1COC[C@H]2COc3c(nc(-n4cc(C#N)c5ccccc54)nc3C(C)(C)S(C)(=O)=O)N21 [A70, 1-[(5R,8aS)-1-(1-methanesulfonyl-1-methyl-ethyl)-5-methyl-5,6,8a,9-tetrahydro-8H-7,10-dioxa-2,4,4b-triaza-phenanthren-3-yl]-1H-indole-3-carbonitrile] | 10 to 100 nM |
| C[C@@H]1COC[C@H]2COc3c(nc(C(=O)N4CC[C@@H](O)C4)nc3C(C)(C)S(C)(=O)=O)N21 [A49, ((R)-3-hydroxy-pyrrolidin-1-yl)-[(4bS,6R)-1-(1-methanesulfonyl-1-methyl-ethyl)-5-methyl-5,6,8a,9-tetrahydro-8H-7,10-dioxa-2,4,4b-triaza-phenanthren-3-yl]-methanone] | 500 to 30000 nM |
| C[C@@H]1COC[C@H]2COc3c(nc(N(C)c4nc5ccccc5[nH]4)nc3C(C)(C)O)N21 [A12, 2-{(5R,8aS)-3-[(1H-Benzimidazol-2-yl)-methyl-amino]-5-methyl-5,6,8a,9-tetrahydro-8H-7,10-dioxa-2,4,4b-triaza-phenanthren-1-yl}-propan-2-ol] | 10 to 100 nM |

The next lines start with the values.

| IC50 | Compound |
| --- | --- |
| 10 to 100 nM | C[C@@H]1COC[C@H]2COc3c(nc(Nc4nc[nH]n4)nc3C(C)(C)S(C)(=O)=O)N21 [A79, [(5R,8aS)-1-(1-methanesulfonyl-1-methyl-ethyl)-5-methyl-5,6,8a,9-tetrahydro-8H-7,10-dioxa-2,4,4b-triaza-phenanthren-3-yl]-(1H[1,2,4]triazol-3-yl)-amine] |
| 1 to 10 nM | C[C@@H]1COC[C@H]2COc3c(nc(-c4cncc(CO)c4)nc3C(C)(C)S(C)(=O)=O)N21 [A40, {5-[(5R,8aS)-1-(1-methanesulfonyl-1-methyl-ethyl)-5-methyl-5,6,8a,9-tetrahydro-8H-7,10-dioxa-2,4,4b-triaza-phenanthren-3-yl]-pyridin-3-yl}-methanol] |
| 10 to 100 nM | C[C@@H]1COC[C@H]2COc3c(nc(-c4ccc5cc(N)ncc5c4)nc3C(C)(C)S(C)(=O)=O)N21 [A66, 7-[(5R,8aS)-1-(1-methanesulfonyl-1-methyl-ethyl)-5-methyl-5,6,8a,9-tetrahydro-8H-7,10-dioxa-2,4,4b-triaza-phenanthren-3-yl]-isoquinolin-3-ylamine] |
| 10 to 100 nM | C[C@@H]1COC[C@H]2COc3c(nc(C(=O)Nc4nnc[nH]4)nc3C(C)(C)S(C)(=O)=O)N21 [A55, (4bS,6R)-1-(1-methanesulfonyl-1-methyl-ethyl)-5-methyl-5,6,8a,9-tetrahydro-8H-7,10-dioxa-2,4,4b-triaza-phenanthrene-3-carboxylic Acid (4H-[1,2,4]triazol-3-yl)-amide] |
| 10 to 100 nM | C[C@@H]1COC[C@H]2COc3c(nc(-c4ccc5ccncc5c4)nc3C(C)(C)S(C)(=O)=O)N21 [A76, (5R,8aS)-3-isoquinolin-7-yl-1-(1-methanesulfonyl-1-methyl-ethyl)-5-methyl-5,6,8a,9-tetrahydro-8H-7,10-dioxa-2,4,4b-triaza-phenanthrene] |
| 10 to 100 nM | COc1cnc2[nH]ccc2c1-c1nc2c(c(C(C)(C)S(C)(=O)=O)n1)OC[C@@H]1COC[C@@H](C)N21 [A88, (10S,14R)-6-(2-methanesulfonylpropan-2-yl)-4-{5-methoxy-1H-pyrrolo[2,3-b]pyridin-4-yl}-14-methyl-8,12-dioxa-1,3,5-triazatricyclo[8.4.0.0^2,7]tetradeca-2,4,6-triene] |
| 1 to 10 nM | C[C@@H]1COC[C@H]2COc3c(Cn4cc(C(=O)O)nn4)nc(-c4ccnc5[nH]ccc45)nc3N21 [A4, 1-[(5R,8aS)-5-Methyl-3-(1H-pyrrolo[2,3-b]pyridin-4-yl)-5,6,8a,9-tetrahydro-8H-7,10-dioxa-2,4,4b-triaza-phenanthren-1-ylmethyl]-1H-[1,2,3]triazole-4-carboxylic Acid] |
| < 1 nM | C[C@@H]1COC[C@H]2COc3c(nc(-c4cccc(CO)c4)nc3C(C)(C)S(C)(=O)=O)N21 [A41, {3-[(5R,8aS)-1-(1-methanesulfonyl-1-methyl-ethyl)-5-methyl-5,6,8a,9-tetrahydro-8H-7,10-dioxa-2,4,4b-triaza-phenanthren-3-yl]-phenyl}-methanol] |
